Reference: patent US20260049101A1, “TOPICAL TREATMENT OF SKIN CANCER USING OLIGOPEPTIDES” (BACOBA AG, priority 2022, published 2026)
“Also recorded” adds a separate entry of the source. Read-outs that look alike come from different tables or passages of the source. Square brackets hold non-standard residues; d marks the D form. Peptide text beside a SMILES is read from it. * marks the point of attachment. NH(1-CH2NMe2-cBu) = CN(C)CC1(N*)CCC1; Benzoyl(4-F) = O=C(c1ccc(F)cc1)*; hCha = N[C@@H](CCC1CCCCC1)C(=O)O; Aib = CC(C)(N)C(=O)O; βAla = NCCC(=O)O

Legend:
[1] = test system: B16-F10 mouse melanoma cells; experiment: In vitro cell viability assay on B16-F10; assay type: cell-based; conditions: B16-F10, 72 hours, resazurin
Protocol: In vitro cell viability assay methodology.
Half maximal inhibitory concentration (IC50) of the compounds was determined by seeding of cell culture into 96 well-plates (Cat #353072, Corning) and treated the day after with dose-escalating concentrations of the compounds (from 0.001 μM to 10 μM in RPMI-1640 complete) for 72 hours. 1000 cells were seeded per well. […] Triplicates were seeded for each condition. […] Vehicle treated wells were set to 100% viability.

[2] = test system: patient derived Basal Cell Carcinoma (BCC); assay type: cell-based, human; conditions: 500 nM, 4 days, vs DMSO
[3] = test system: patient derived Basal Cell Carcinoma (BCC); experiment: Ex vivo patient-derived nodular BCC (Example 10), Ki67; assay type: cell-based, human; conditions: 500 nM, 4 days, compared to Vismodegib (20 μM); p<0.002
Protocol: Tumour material was harvested from a nodular basal cell carcinoma (BCC) from a patient's upper back.
Vismodegib (20 μM) was used as a positive control.

[4] = test system: cutaneous melanoma M010817; conditions: read-out: IC50 M010817
Protocol: (§1) For the maintenance of healthy human fibroblast cell culture Dulbecco's Modified Eagle Medium (DMEM, Cat #11966025, Gibco) supplemented with 10% heat-inactivated fetal bovine serum (Cat #S006420H01, BioWest) was used. For the maintenance of melanoma cell cultures RPMI-1640 (Cat #R0883, Gibco) supplemented with L-glutamine (Cat #25030-081, Gibco), 1 mM sodium pyruvate (Cat #S8636, Sigma-Aldrich), 10% heat-inactivated fetal bovine serum (Cat #S006420H01, BioWest) and 1% Penicillin-Streptomycin (Cat #15140122, Gibco) was used. The MyLa_CTCL cell cultures were cultivated in RPMI 1640 Medium (R0883) supplemented with 2 mM L-Glutamine (G7513), 10 U/ml IL-2 (H7041), 10 U/ml IL-4 (H7291) and 10% Human AB Serum (H4522). The cutaneous squamous cell carcinoma cell cultures A431 and SCC13 were cultivated in Dulbecco's Modified Eagle Medium (DMEM, Cat #11966025, Gibco) supplemented with 10% heat-inactivated fetal bovine serum (Cat #S006420H01, BioWest).
(§2) To determine the half maximal inhibitory concentrations (IC50's) serial dilution of compounds in DMSO to 1000× was performed (10 mM, 5 mM, 1 mM, 500 μM, 250 μM, 100 μM, 10 μM, 1 μM). 2 μl of these dilutions were further diluted in 198 μl growth medium with supplements, mixed well and 10 μl were further dispensed in triplicates to the 96-well plates containing cells in 90 μl.
(§3) For each drug condition and cell culture (for each row of the triplicate) a well with only RPMI-1640 complete/KSFM/DMEM media and one with media and DMSO were made as controls. DMSO was never at a higher concentration than 0.2% v/v. Triplicates were seeded for each condition. On the day of the assay, the medium was exchanged with cell culture media containing 0.1% of Resazurin-sodium salt stock solution (stock: 0.015 mg/ml, in PBS, Cat #R7017, Sigma-Aldrich). […] With a fluorescence-based plate reader (Infinite M200 Pro, Tecan, Switzerland) using excitations between […] and emissions at 590 nM the cell-culture plates were readout. The calculations and graphs are performed with GraphPad Prism program. Vehicle treated wells were set to 100% viability.

[5] = test system: healthy skin dermal fibroblasts
Protocol: as §1, §2, §3

[6] = test system: cutaneous squamous cell carcinoma cell line SCC13; conditions: read-out: IC50 SCC13
Protocol: as §1, §2, §3

M130107 = conditions: read-out: IC50 M130107
Protocol: as §1, §2, §3

[7] = test system: cutaneous melanoma M150672; conditions: read-out: IC50 M150672
Protocol: as §1, §2, §3

[8] = test system: cutaneous squamous cell carcinoma cell line A431_SCC; conditions: read-out: IC50 A431
Protocol: as §1, §2, §3

[9] = test system: cutaneous melanoma M150507; conditions: read-out: IC50 M150507
Protocol: as §1, §2, §3

[10] = test system: cutaneous T cell lymphoma MyLa_CTCL; conditions: read-out: IC50 MyLa_CTCL
Protocol: as §1, §2, §3

[11] = test system: cutaneous squamous cell carcinoma cell line SCC12; experiment: In vitro anti-proliferative assay (resazurin) in SCC12; assay type: cell-based; conditions: SCC12, 72 hours
Description: Methodology. The cutaneous squamous cell carcinoma cell culture SCC12 was cultivated in keratinocyte-SFM media (KSFM, Cat #17005042, Gibco) supplemented with human recombinant epidermal growth factor 1-53 (EGF 1-53) and bovine pituitary extract (BFE).
Vehicle treated wells were set to 100% viability.

[12] = test system: patient derived Basal Cell Carcinoma (BCC); assay type: cell-based, human; conditions: 4 days, vs DMSO; for cell proliferation (Ki67): p<0.002
Description: Tumour material was harvested from an infiltrative basal cell carcinoma (BCC) from a patient's nose.

[13] = test system: patient derived high grade cutaneous squamous cell carcinoma (cSCC); experiment: Ex vivo patient-derived high grade cSCC (Example 11), Ki67; assay type: cell-based, human; conditions: 500 nM, 4 days, vs DMSO; p<0.003
Description: Tumour material was harvested from high grade cutaneous squamous cell carcinoma (cSCC) from a patient's head.

[14] = test system: B16F10 xenografts in C57BL/6 mice; experiment: Histopathology (Ki67, TUNEL) of tumour slices from treated mice; assay type: in vivo, mouse; conditions: daily 20 μl of 6027 vs vehicle treated controls; Two-Way ANOVA
Protocol: The read out was tumour volume measured three times a week expressed as tumour volume (in cm^3). Additionally, tumour samples were taken for histological analysis (Tumour FFPE) (2 mice per group).
Histopathology. After sacrifice non ulcerated tumours were sampled and paraffin blocks were prepared for immunohistochemistry stainings. […] During interphase, the Ki-67 antigen can be exclusively detected within the cell nucleus, whereas in mitosis most of the protein is relocated to the surface of the chromosomes. Ki-67 protein is present during all active phases of the cell cycle (G1, S, G2 and mitosis), but is absent in resting (quiescent) cells (G0). Cellular content of Ki-67 protein markedly increases during cell progression through S phase of the cell cycle.
TUNEL staining was used to determine areas of the tumour in which apoptosis was observed. Terminal deoxynucleotidyl transferase dUTP nick end labeling (TUNEL) staining is a method for detecting DNA fragmentation by labeling the 3′-hydroxyl termini in DNA double-stranded breaks generated during apoptosis.

For `CC(C)C[C@H](NC(=O)[C@H](CCC1CCCCC1)NC(=O)[C@@H]1CCCN1C(=O)c1ccc(F)cc1)C(=O)NC(C)(C)C(=O)N[C@@H](CC(C)C)C(=O)N[C@@H](CC(C)C)C(=O)NC(C)(C)C(=O)NC(C)(C)C(=O)NCCC(=O)NC1(CN(C)C)CCC1` [Compound 6027, (2S)-2-[(2S)-4-cyclohexyl-2-{[(2S)-1-(4-fluorobenzoyl)pyrrolidin-2-yl]formamido}butanamido]-N-(1-{[(1S)-1-{[(1S)-1-({1-[(1-{[2-({1-[(dimethylamino)methyl]cyclobutyl}carbamoyl)ethyl]carbamoyl}-1-methylethyl)carbamoyl]-1-methylethyl}carbamoyl)-3-methylbutyl]carbamoyl}-3-methylbutyl]carbamoyl}-1-methylethyl)-4-methylpentanamide] ({Benzoyl(4-F)}-P[hCha]L[Aib]LL[Aib][Aib][βAla]-{NH(1-CH2NMe2-cBu)}), the IC50 [1] was 208 nM, the “apoptotic cells (TUNEL positive cells)” value [2] was “Significant increase” and the “cell proliferation (Ki67)” value [2] was “significantly reduced”. The “cell proliferation (Ki67)” value [3] was “significantly reduced”, the IC50 [4] was 60 nM and the “cytotoxicity against healthy skin dermal fibroblasts compared with skin cancer cell lines” value [5] was “less pronounced”. It also gave an IC50 ([5]; read-out: IC50 Fibroblast, healthy skin dermal fibroblasts) of 3030 nM, an IC50 [6] of 191 nM and an IC50 (M130107) of 169 nM. For the same compound, the IC50 [7] was 122 nM, the IC50 [8] was 70 nM and the IC50 [9] was 56 nM. The IC50 [10] was 451 nM, the IC50 [11] was 118 nM and the “apoptotic cells (TUNEL staining)” value ([12]; 500 nM) was “Significant increase”. The “cell proliferation (Ki67)” value ([12]; 500 nM) was “significantly reduced”, the “cell proliferation (Ki67)” value ([12]; 1 μM) was “significantly reduced” and the “apoptotic cells (TUNEL staining)” value [12] was “Significant increase”. For the same compound, the “cell proliferation (Ki67)” value [13] was “significantly reduced”, the “apoptotic cells (TUNEL) in tumour slices” value [14] was “significant increase of apoptotic cells; also recorded: Strong proapoptotic potential” and the “proliferative cells (Ki67) in tumour slices” value [14] was “significant decrease in proliferative cells”.
